Tests used:
[1] = system: PC12-HttQ103 cells; experiment: cellular systems biology model of Huntington's Disease, mutant huntingtin-GFP expression; format: cell-based, rat
Procedure: FIG. 10 are example cellular systems biology profiling images for a model of Huntington's Disease (HD). PC12-HttQ103 cells were seeded in 384-well plates +/− NGF (100 ng/ml). At two days post-seeding cells were induced with 200 nM RSL1 +/− NGF (100 ng/ml) for 48 h. Following fixation, cells were stained with Hoechst and with antibodies raised against tubulin and phospho c-Jun. Tubulin was detected with a donkey anti mouse Cy3 conjugated secondary antibody and phospho c-Jun was visualized with a donkey anti rabbit Cy5 conjugated secondary antibody. Images were captured with an HCS instrument and Hoechst-stained nuclei, mutant huntingtin-GFP expression, phospho c-Jun labeled nuclei, and tubulin-stained cells are shown. […]
FIG. 11 is a graph illustrating that mutant huntingtin aggregation correlates with cell loss. […] Images were captured with an HCS instrument and the cell number and % cells with aggregates were determined with standard imaging algorithms. […]
FIG. 14. are graphs illustrating little correlation between aggregate formation and differentiation PC12-Htt-Q103 cells were treated and stained as stated in FIG. 10. Aggregate formation in untreated and NGF-treated populations was measured with standard imaging algorithms. Mean neurite count and mean branch point distance form the cell body was also measured. […]

[2] = system: PC12T cells; experiment: cellular systems biology profile of GFP-Htt aggregate formation with compound treatment; format: cell-based
Procedure: To test if there was an interrelationship between the modulation of the microtubule cytoskeleton and the formation of huntingtin protein (Htt) aggregates, cells were induced to produce fluorescently labeled huntingtin protein (GFP-Htt). Soon thereafter, the same Cells were treated with a set of compounds including several microtubule modulators. Cellular systems biology profiling can be used to define the interrelationships between several cellular features including microtubule cytoskeletal stability, cell cycle regulation, GFP-Htt aggregate formation, and nuclear morphology.
In one embodiment, 7.5×10^+6 PC12T cells were plated into T25 tissue culture flasks and panasterone A was added to a final concentration of 5 μM. After an overnight incubation, the cells were trypsinized and replated onto collagen I coated 384-well microplates at a density of 10000 cells per well in medium containing 1 μM panasterone A (24 h after the first panasterone A treatment began). Cells were treated for 26 h with 14 compounds at 12 concentrations each ranging from <1 nM to 50 μM. At the end of the incubation period, cells were fixed with 3.7% formaldehyde, permeabilized with 0.5% Triton X-100 detergent, and labeled with primary-secondary antibody pairs to measure microtubule stability (α-tubulin) and mitotic events (phospho-histone […]). Cells were also labeled with Hoechst 33342 (5 μg/ml) to provide measurements of cell cycle regulation (DNA content), changes in cell number, and multiple nuclear morphology measurements including chromatin condensation and nuclear size and shape.
To build a cellular systems biology profile of the cellular response to GFP-Htt aggregation and compound treatment, the following example cellular systems biology response profile features can be calculated from responses of cell populations either expressing GFP-Htt or not expressing GFP-Htt that can be separated mathematically from each other and analyzed separately.

Row | Compound | cell number ([1]; 200 nM RSL1, as a function of treatment time) | % cells with aggregates ([1]; 200 nM RSL1 induction) [%] | compound induced modulation of cell cycle regulation (2 n/4 n distribution ratio) ([2]; cells with GFP-Htt aggregates versus cells without aggregates, 26 h treatment) | sensitivity to the microtubule destabilizing activity ([2]; cells with aggregates versus cells without aggregates) | Nocodazole-induced cell cycle regulation and nuclear morphological changes ([2]; in cells containing GFP-Htt aggregates)
1 | CCc1c(OC)cccc1C(=O)NN(C(=O)c1cc(C)cc(C)c1)C(C)(C)C [RSL1] | decreased | 50 |  |  | 
2 | COC(=O)Nc1nc2ccc(C(=O)c3cccs3)cc2[nH]1 [nocodazole] |  |  | less responsive | greater sensitivity | partially inhibited

Reference: patent US20100009352A1, “Method for Modeling a Disease” (priority 2006, published 2010)
